PubChem BioAssay (NCI)
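Where inhibition never reached the appropriate level, the endpoint shown equals the highest concentration tested. Otherwise, values were interpolated linearly from a five-concentration, 48-hour dose response in 96-well plates. TGI denotes the concentration required for complete inhibition of growth.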

Key:
Experiment in all cases: NCI-60 cell line screen, 48 h
[1] = system: SNB-75 CNS
[2] = system: KM12 colon
[3] = system: SK-MEL-5 melanoma
[4] = system: SK-OV-3 ovarian
[5] = system: SNB-19 CNS
[6] = system: ACHN renal
[7] = system: UO-31 renal
[8] = system: MDA-MB-435
[9] = system: EKVX NSCLC
[10] = system: HCC-2998 colon

Structure (SMILES)	TGI [1]	TGI [2]	TGI [3]	TGI [4]	TGI [5]	TGI [6]	TGI [7]	TGI [8]	TGI [9]	TGI [10]
CSc1nc(-c2cc3c(c(SC)n2)CCCCC3)cc2c1CCCCC2	> 100 µM	> 100 µM	> 100 µM	> 100 µM	> 100 µM	> 100 µM	> 100 µM	> 100 µM	> 100 µM	> 100 µM
Clc1ccc(Oc2ccc(N=Cc3ccc(Cl)cc3Cl)cc2Cl)cc1	87.4 µM	> 100 µM	> 100 µM	> 100 µM	> 100 µM	> 100 µM	> 100 µM	49.7 µM	> 100 µM	> 100 µM
CCCCCNc1nonc1N	> 100 µM	> 100 µM	> 100 µM	> 100 µM	> 100 µM	> 100 µM	> 100 µM	> 100 µM	> 100 µM	> 100 µM
CC(C)C1(C)N=C(C(F)(F)F)c2cc(C(=O)C(F)(F)F)c3ccccc3c2N1 (stereo not given)	7.96 µM	12.7 µM	25.9 µM	30.2 µM	16.6 µM	12 µM	14.1 µM	11.3 µM	18.4 µM	11.9 µM
